Source: ChEMBL document CHEMBL2010681, “Synthesis and SAR study of 4-arylpiperidines and 4-aryl-1,2,3,6-tetrahydropyridines as 5-HT₂C agonists” (Bioorg Med Chem Lett, 2012)

Key:
[1] = target: T1, 5-hydroxytryptamine receptor 2C (Homo sapiens, UniProt P28335); experiment: Agonist activity at 5HT2C receptor expressed in CHO cells by fluorescence based calcium mobilization assay; type: functional, cell-based
T1 sequence (P28335 whole entry): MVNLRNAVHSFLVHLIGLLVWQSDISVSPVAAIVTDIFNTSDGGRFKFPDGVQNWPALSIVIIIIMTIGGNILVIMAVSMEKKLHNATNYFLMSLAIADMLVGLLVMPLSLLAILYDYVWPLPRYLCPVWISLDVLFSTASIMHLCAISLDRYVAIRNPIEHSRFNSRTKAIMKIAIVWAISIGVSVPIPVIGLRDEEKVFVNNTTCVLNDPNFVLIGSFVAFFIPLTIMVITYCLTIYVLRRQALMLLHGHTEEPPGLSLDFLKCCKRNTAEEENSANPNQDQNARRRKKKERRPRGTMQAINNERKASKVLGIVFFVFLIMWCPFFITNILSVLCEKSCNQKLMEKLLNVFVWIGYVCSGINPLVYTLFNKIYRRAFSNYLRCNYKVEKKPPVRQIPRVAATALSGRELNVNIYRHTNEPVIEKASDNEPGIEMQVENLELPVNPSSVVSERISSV

[2] = target: T1, 5-hydroxytryptamine receptor 2C; experiment: Displacement of [3H]-mesulergine from 5HT2C receptor expressed in CHO cell membranes after 90 mins by scintillation counting
[3] = target: T2, 5-hydroxytryptamine receptor 2C (Homo sapiens) (UniProt P28335); experiment: Displacement of [3H]-mesulergine from 5HT2C receptor expressed in CHO cell membranes at 10 uM after 90 mins by scintillation counting
T2 sequence (whole entry): T1 sequence (P28335 whole entry)

[4] = target: T2, 5-hydroxytryptamine receptor 2C (Homo sapiens); experiment: Displacement of [3H]-mesulergine from 5HT2C receptor expressed in CHO cell membranes at 1 uM after 90 mins by scintillation counting
[5] = target: T1, 5-hydroxytryptamine receptor 2C; experiment: Displacement of [3H]-mesulergine from 5HT2C receptor expressed in CHO cell membranes using 11 concentration of ligand after 90 mins by scintillation counting using complete competition binding curves analysis

SMILES | EC50 ([1]; cho) | Ki [2] | inhibition [3] | EC50 ([1]; read-out: EC50) | inhibition [4] | Ki [5]
Cl.Fc1ccc(C2CCNCC2)cc1 | Not Active | > 10 µM | – | – | – | –
Cl.Oc1cccc(C2CCNCC2)c1 | Not Active | > 10 µM | – | – | – | –
FC(F)(F)c1cccc(C2CCNCC2)c1 | – | 1.55 µM | 77% | 1.26 µM | 26% | –
O=C(O)C(F)(F)F.c1ccc2c(C3CCNCC3)cccc2c1 | Not Active | 0.06 µM | – | – | – | 0.072 µM
c1ccc2c(C3CCNCC3)c[nH]c2c1 | – | 0.366 µM | 92% | 0.128 µM | 60% | 0.612 µM
Cl.FC(F)(F)c1ccccc1C1CCNCC1 | Not Active | 0.826 µM | – | – | – | –
C1=C(c2ccccc2)CCNC1 | – | 7.18 µM | 42% | 2.45 µM | 9% | –
Clc1cccc(C2CCNCC2)c1 | – | 0.931 µM | 83% | 0.79 µM | 37% | 1.43 µM
Cc1ccccc1C1CCNCC1.Cl | Not Active | 3.17 µM | 65% | – | 10% | –
C1=C(c2c[nH]c3ccccc23)CCNC1 | – | 0.296 µM | 95% | 0.163 µM | 64% | 0.632 µM
Cl.c1ccc(C2CCNCC2)cc1 | Not Active | > 10 µM | 16% | – | 6% | –
FC(F)(F)c1cccc(C2=CCNCC2)c1 | – | 0.298 µM | 93% | 0.158 µM | 65% | 0.365 µM
Cl.FC(F)(F)c1ccc(C2CCNCC2)cc1 | Not Active | 8.32 µM | – | – | – | –
Cl.Clc1ccc(C2CCNCC2)cc1 | Not Active | > 10 µM | – | – | – | –
CN(C)c1ccc(C2CCNCC2)cc1.Cl | Not Active | > 10 µM | – | – | – | –
COc1cccc(C2CCNCC2)c1.Cl | Not Active | 6.19 µM | – | – | – | –
Clc1ccccc1C1=CCNCC1.O=C(O)C(F)(F)F | Not Active | – | – | – | – | –
Clc1cccc(C2=CCNCC2)c1 | – | 0.28 µM | 95% | 0.0723 µM | 65% | 0.318 µM
Cc1cccc(C2CCNCC2)c1 | – | 3.13 µM | 63% | 2 µM | 15% | –
COc1ccc(C2CCNCC2)cc1.Cl | Not Active | > 10 µM | 9% | – | 3% | –
Clc1ccc(C2=CCNCC2)cc1 | – | 3.1 µM | 62% | 1.76 µM | 17% | –
O=C(O)C(F)(F)F.c1cc2c(c(C3CCNCC3)c1)CCCC2 | Not Active | 0.055 µM | – | – | – | 0.043 µM
Cc1cccc(C2CCNCC2)c1C.Cl | Not Active | 1.16 µM | – | – | – | –
Cl.Clc1ccccc1C1CCNCC1 | Not Active | – | – | – | – | –
Brc1ccc(C2=CCNCC2)cc1 | – | 2.54 µM | 65% | 3.52 µM | 22% | –
COc1ccccc1C1CCNCC1.Cl | Not Active | 1.8 µM | 74% | – | 23% | –
Cc1ccc(C2CCNCC2)cc1.Cl | Not Active | > 10 µM | 33% | – | 9% | –
